Results as given in patent US20090005745A1, “Transdermal drug delivery systems for delivering anti-inflammatory drugs” (priority 2007, published 2009).

Tests used:
[1] = Skin permeability using the Example 1 formulations (Example 6)
Description: Thus, adjustment of the drug concentration can be carried out in order to achieve a desired therapeutic effect.

[2] = Ketoprofen plasma levels achieved by on-knee patch delivery (Example 7); format: in vivo, human; details: N = 22; for concentration at 2 h / concentration at 4 h / concentration at 6 h / concentration at 8 h / concentration at 10 h / concentration at 12 h / concentration at 14 h / concentration at 16 h / concentration at 18 h / concentration at 20 h / concentration at 24 h / concentration at 28 h / concentration at 32 h / concentration at 36 h / concentration at 42 h / concentration at 48 h: human, plasma, topical, Mean Ketoprofen Plasma Concentration; for concentration at 2 h: applied 12 h
Method: In one study session, subjects received one patch above one knee and in the other study session subjects received two patches simultaneously, one above each knee. The patches were applied for 12 hours and venous blood samples were collected during both study session.

## O=C(O)Cc1ccccc1Nc1c(Cl)cccc1Cl [diclofenac]
[1]
  Skin permeability compared with ketoprofen: less skin permeable

## CC(C(=O)O)c1cccc(C(=O)c2ccccc2)c1 (centres unmarked) [Ketoprofen]
[2]; Single Patch, time point 2 hrs
  Mean Ketoprofen Plasma Concentration produced by unit skin-drug contact area: 0.078 ng/ml/cm^2
[2]; Single Patch, time point 4 hrs
  Mean Ketoprofen Plasma Concentration produced by unit skin-drug contact area: 0.366 ng/ml/cm^2
[2]; Single Patch, time point 6 hrs
  Mean Ketoprofen Plasma Concentration produced by unit skin-drug contact area: 0.562 ng/ml/cm^2
[2]; Single Patch, time point 8 hrs
  Mean Ketoprofen Plasma Concentration produced by unit skin-drug contact area: 0.675 ng/ml/cm^2
[2]; Single Patch, time point 10 hrs
  Mean Ketoprofen Plasma Concentration produced by unit skin-drug contact area: 0.770 ng/ml/cm^2
[2]; Single Patch, time point 12 hrs
  Mean Ketoprofen Plasma Concentration produced by unit skin-drug contact area: 0.703 ng/ml/cm^2
[2]; Single Patch, time point 14 hrs
  Mean Ketoprofen Plasma Concentration produced by unit skin-drug contact area: 0.464 ng/ml/cm^2
[2]; Single Patch, time point 16 hrs
  Mean Ketoprofen Plasma Concentration produced by unit skin-drug contact area: 0.282 ng/ml/cm^2
[2]; Single Patch, time point 18 hrs
  Mean Ketoprofen Plasma Concentration produced by unit skin-drug contact area: 0.213 ng/ml/cm^2
[2]; Single Patch, time point 20 hrs
  Mean Ketoprofen Plasma Concentration produced by unit skin-drug contact area: 0.160 ng/ml/cm^2
[2]; Single Patch, time point 24 hrs
  Mean Ketoprofen Plasma Concentration produced by unit skin-drug contact area: 0.095 ng/ml/cm^2
[2]; Single Patch, time point 28 hrs
  Mean Ketoprofen Plasma Concentration produced by unit skin-drug contact area: 0.058 ng/ml/cm^2
[2]; Single Patch, time point 32 hrs
  Mean Ketoprofen Plasma Concentration produced by unit skin-drug contact area: 0.035 ng/ml/cm^2
[2]; Single Patch, time point 36 hrs
  Mean Ketoprofen Plasma Concentration produced by unit skin-drug contact area: 0.028 ng/ml/cm^2
[2]; Single Patch, time point 42 hrs
  Mean Ketoprofen Plasma Concentration produced by unit skin-drug contact area: 0.023 ng/ml/cm^2
[2]; Single Patch, time point 48 hrs
  Mean Ketoprofen Plasma Concentration produced by unit skin-drug contact area: 0.019 ng/ml/cm^2
[2]; Two Patches Dose-Normalized to one patch, time point 2 hrs
  Mean Ketoprofen Plasma Concentration: 3.9 ng/mL
[2]; Two Patches Dose-Normalized to one patch, time point 4 hrs
  Mean Ketoprofen Plasma Concentration: 44.6 ng/mL
[2]; Two Patches Dose-Normalized to one patch, time point 48 hrs
  Mean Ketoprofen Plasma Concentration: 3.1 ng/mL
[2]; Two Patches, time point 2 hrs
  Mean Ketoprofen Plasma Concentration produced by unit skin-drug contact area: 0.023 ng/ml/cm^2
[2]; Two Patches, time point 4 hrs
  Mean Ketoprofen Plasma Concentration produced by unit skin-drug contact area: 0.259 ng/ml/cm^2
[2]; Two Patches, time point 6 hrs
  Mean Ketoprofen Plasma Concentration produced by unit skin-drug contact area: 0.512 ng/ml/cm^2
[2]; Two Patches, time point 8 hrs
  Mean Ketoprofen Plasma Concentration produced by unit skin-drug contact area: 0.630 ng/ml/cm^2
[2]; Two Patches, time point 10 hrs
  Mean Ketoprofen Plasma Concentration produced by unit skin-drug contact area: 0.714 ng/ml/cm^2
[2]; Two Patches, time point 12 hrs
  Mean Ketoprofen Plasma Concentration produced by unit skin-drug contact area: 0.665 ng/ml/cm^2
[2]; Two Patches, time point 14 hrs
  Mean Ketoprofen Plasma Concentration produced by unit skin-drug contact area: 0.454 ng/ml/cm^2
[2]; Two Patches, time point 16 hrs
  Mean Ketoprofen Plasma Concentration produced by unit skin-drug contact area: 0.280 ng/ml/cm^2
[2]; Two Patches, time point 18 hrs
  Mean Ketoprofen Plasma Concentration produced by unit skin-drug contact area: 0.199 ng/ml/cm^2
[2]; Two Patches, time point 20 hrs
  Mean Ketoprofen Plasma Concentration produced by unit skin-drug contact area: 0.152 ng/ml/cm^2
[2]; Two Patches, time point 24 hrs
  Mean Ketoprofen Plasma Concentration produced by unit skin-drug contact area: 0.090 ng/ml/cm^2
[2]; Two Patches, time point 28 hrs
  Mean Ketoprofen Plasma Concentration produced by unit skin-drug contact area: 0.054 ng/ml/cm^2
[2]; Two Patches, time point 32 hrs
  Mean Ketoprofen Plasma Concentration produced by unit skin-drug contact area: 0.036 ng/ml/cm^2
[2]; Two Patches, time point 36 hrs
  Mean Ketoprofen Plasma Concentration produced by unit skin-drug contact area: 0.029 ng/ml/cm^2
[2]; Two Patches, time point 42 hrs
  Mean Ketoprofen Plasma Concentration produced by unit skin-drug contact area: 0.021 ng/ml/cm^2
[2]; Two Patches, time point 48 hrs
  Mean Ketoprofen Plasma Concentration produced by unit skin-drug contact area: 0.018 ng/ml/cm^2
[2]; 136 mg, Single Patch (136 mg, 172 cm^2, heated) above one knee, time point 2 hrs
  concentration at 2 h: 13.5 ng/mL
[2]; 136 mg, Single Patch, time point 4 hrs
  concentration at 4 h: 62.9 ng/mL
[2]; 136 mg, Single Patch, time point 6 hrs
  concentration at 6 h: 96.7 ng/mL
[2]; 136 mg, Single Patch, time point 8 hrs
  concentration at 8 h: 116 ng/mL
[2]; 136 mg, Single Patch, time point 10 hrs
  concentration at 10 h: 132 ng/mL
[2]; 136 mg, Single Patch, time point 12 hrs
  concentration at 12 h: 121 ng/mL
[2]; 136 mg, Single Patch, time point 14 hrs
  concentration at 14 h: 79.8 ng/mL
[2]; 136 mg, Single Patch, time point 16 hrs
  concentration at 16 h: 48.5 ng/mL
[2]; 136 mg, Single Patch, time point 18 hrs
  concentration at 18 h: 36.3 ng/mL
[2]; 136 mg, Single Patch, time point 20 hrs
  concentration at 20 h: 27.6 ng/mL
[2]; 136 mg, Single Patch, time point 24 hrs
  concentration at 24 h: 16.4 ng/mL
[2]; 136 mg, Single Patch, time point 28 hrs
  concentration at 28 h: 10 ng/mL
[2]; 136 mg, Single Patch, time point 32 hrs
  concentration at 32 h: 6.1 ng/mL
[2]; 136 mg, Single Patch, time point 36 hrs
  concentration at 36 h: 4.9 ng/mL
[2]; 136 mg, Single Patch, time point 42 hrs
  concentration at 42 h: 3.9 ng/mL
[2]; 136 mg, Single Patch, time point 48 hrs
  concentration at 48 h: 3.2 ng/mL
[2]; 272 mg, Two Patches Dose-Normalized to one patch, time point 6 hrs
  concentration at 6 h: 88.1 ng/mL
[2]; 272 mg, Two Patches Dose-Normalized to one patch, time point 8 hrs
  concentration at 8 h: 108 ng/mL
[2]; 272 mg, Two Patches Dose-Normalized to one patch, time point 10 hrs
  concentration at 10 h: 123 ng/mL
[2]; 272 mg, Two Patches Dose-Normalized to one patch, time point 12 hrs
  concentration at 12 h: 114 ng/mL
[2]; 272 mg, Two Patches Dose-Normalized to one patch, time point 14 hrs
  concentration at 14 h: 78.1 ng/mL
[2]; 272 mg, Two Patches Dose-Normalized to one patch, time point 16 hrs
  concentration at 16 h: 48.2 ng/mL
[2]; 272 mg, Two Patches Dose-Normalized to one patch, time point 18 hrs
  concentration at 18 h: 34.2 ng/mL
[2]; 272 mg, Two Patches Dose-Normalized to one patch, time point 20 hrs
  concentration at 20 h: 26.1 ng/mL
[2]; 272 mg, Two Patches Dose-Normalized to one patch, time point 24 hrs
  concentration at 24 h: 15.5 ng/mL
[2]; 272 mg, Two Patches Dose-Normalized to one patch, time point 32 hrs
  concentration at 32 h: 6.2 ng/mL
[2]; 272 mg, Two Patches Dose-Normalized to one patch, time point 36 hrs
  concentration at 36 h: 5 ng/mL
[2]; 272 mg, Two Patches Dose-Normalized to one patch, time point 42 hrs
  concentration at 42 h: 3.6 ng/mL
[2]; 272 mg, Two Patches simultaneously, one above each knee, time point 2 hrs
  concentration at 2 h: 7.8 ng/mL
[2]; 272 mg, Two Patches, time point 4 hrs
  concentration at 4 h: 89.2 ng/mL
[2]; 272 mg, Two Patches, time point 6 hrs
  concentration at 6 h: 176 ng/mL
[2]; 272 mg, Two Patches, time point 8 hrs
  concentration at 8 h: 217 ng/mL
[2]; 272 mg, Two Patches, time point 10 hrs
  concentration at 10 h: 246 ng/mL
[2]; 272 mg, Two Patches, time point 12 hrs
  concentration at 12 h: 229 ng/mL
[2]; 272 mg, Two Patches, time point 14 hrs
  concentration at 14 h: 156 ng/mL
[2]; 272 mg, Two Patches, time point 16 hrs
  concentration at 16 h: 96.3 ng/mL
[2]; 272 mg, Two Patches, time point 18 hrs
  concentration at 18 h: 68.4 ng/mL
[2]; 272 mg, Two Patches, time point 20 hrs
  concentration at 20 h: 52.2 ng/mL
[2]; 272 mg, Two Patches, time point 24 hrs
  concentration at 24 h: 31 ng/mL
[2]; 272 mg, Two Patches, time point 28 hrs
  concentration at 28 h: 18.6 ng/mL
[2]; 272 mg, Two Patches, time point 32 hrs
  concentration at 32 h: 12.3 ng/mL
[2]; 272 mg, Two Patches, time point 36 hrs
  concentration at 36 h: 9.9 ng/mL
[2]; 272 mg, Two Patches, time point 42 hrs
  concentration at 42 h: 7.2 ng/mL
[2]; 272 mg, Two Patches, time point 48 hrs
  concentration at 48 h: 6.2 ng/mL
